Target: E275C gp120 (Human immunodeficiency virus type 1 group M subtype B, UniProt P35961, E271C)
Assay: covalent labeling
Type: biochemical, HIV-1
Details: α-biotin Western blot, reactants in 2-fold excess (Figure 3)

Structure (SMILES): O=C(CCCC[C@@H]1SC[C@@H]2NC(=O)N[C@@H]21)NCCOCCOCCNC(=O)CCN1C(=O)C=CC1=O [MPB, Maleimide-PEG2-biotin, reference compound]
- biotinylation (labeling) of E275C gp120: yields significantly lower
